Structures can show the parent of a compound that is named as a salt.
Columns and labels:
DAT = target: T1, DAT (Homo sapiens, UniProt Q01959); assay: biochemical; format: binding; settings: for inhibition at 0.1 µM: read-out: % inhibition at 100 nM concentration of test compound, DAT
T1 construct: cDNAs containing the complete coding regions of each transporter were amplified by PCR from human brain libraries; expressed in transfected cells; host or cells: HEK293E

SERT = SERT (Homo sapiens, UniProt P31645); assay: biochemical; settings: for inhibition at 0.1 µM: read-out: % inhibition at 100 nM concentration of test compound, SERT
dopamine transporter = dopamine transporter (Homo sapiens, UniProt Q01959); settings: cited from earlier work
[1] = test system: tetrabenazine-induced exploratory loss and ptosis in mice; assay: Tetrabenazine assay; settings: mouse; result in words
[2] = in a very small number of patients; cited from earlier work

Sequence of SERT (P31645 whole entry): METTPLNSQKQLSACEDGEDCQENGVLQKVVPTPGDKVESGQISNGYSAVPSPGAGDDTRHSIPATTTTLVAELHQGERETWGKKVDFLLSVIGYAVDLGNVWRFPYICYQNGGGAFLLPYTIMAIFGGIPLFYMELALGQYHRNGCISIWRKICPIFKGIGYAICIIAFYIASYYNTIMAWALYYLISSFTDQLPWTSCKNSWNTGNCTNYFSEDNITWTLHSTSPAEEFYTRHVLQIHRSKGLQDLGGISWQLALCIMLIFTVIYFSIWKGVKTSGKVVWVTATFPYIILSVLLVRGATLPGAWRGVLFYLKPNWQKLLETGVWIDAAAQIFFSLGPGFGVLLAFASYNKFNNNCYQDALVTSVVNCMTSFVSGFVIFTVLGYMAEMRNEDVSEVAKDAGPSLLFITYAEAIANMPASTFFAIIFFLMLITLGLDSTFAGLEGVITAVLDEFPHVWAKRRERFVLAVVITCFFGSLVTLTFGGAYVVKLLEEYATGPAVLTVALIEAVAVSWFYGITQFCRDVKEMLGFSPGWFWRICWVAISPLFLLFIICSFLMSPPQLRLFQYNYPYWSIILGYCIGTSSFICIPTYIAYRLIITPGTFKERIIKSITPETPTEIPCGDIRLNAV
T1 sequence (Q01959 whole entry): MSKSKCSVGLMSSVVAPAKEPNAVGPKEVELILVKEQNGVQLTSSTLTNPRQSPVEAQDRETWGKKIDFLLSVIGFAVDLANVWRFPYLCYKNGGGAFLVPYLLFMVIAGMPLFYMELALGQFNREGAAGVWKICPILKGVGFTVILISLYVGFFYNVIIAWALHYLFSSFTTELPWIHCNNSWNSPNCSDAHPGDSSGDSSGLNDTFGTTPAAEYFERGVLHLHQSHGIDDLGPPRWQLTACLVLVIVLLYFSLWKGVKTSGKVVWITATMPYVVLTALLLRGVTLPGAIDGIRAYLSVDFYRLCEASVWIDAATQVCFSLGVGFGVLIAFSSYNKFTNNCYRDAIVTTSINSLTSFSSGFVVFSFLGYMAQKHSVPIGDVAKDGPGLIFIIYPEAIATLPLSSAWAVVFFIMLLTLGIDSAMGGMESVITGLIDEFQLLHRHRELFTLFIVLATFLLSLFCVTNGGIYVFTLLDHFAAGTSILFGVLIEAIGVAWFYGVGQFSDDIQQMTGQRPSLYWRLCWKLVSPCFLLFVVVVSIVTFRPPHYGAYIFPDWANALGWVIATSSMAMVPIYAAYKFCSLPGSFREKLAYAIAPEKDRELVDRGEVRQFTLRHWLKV
Sequence of dopamine transporter (Q01959 whole entry): as above

Row | SMILES | Ki (DAT) | Ki (SERT) | also measured
1 | Cc1csc(C2CN(C)Cc3ccccc32)c1 (racemic) [4-methyl-thiophen-2-yl, reference compound] | 2250 nM | 3170 nM | 
2 | Cc1noc(C)c1-c1ccc2c(c1)CN(C)CC2c1ccc2ccccc2c1 (racemic) [Example 142, (±)-7-(3,5-dimethyl-isoxazol-4-yl)-2-methyl-4-napthalen-2-yl-1,2,3,4-tetrahydroisoquinoline, maleate salt] | 104 nM | 5.2 nM | 
3 | CN1Cc2ccccc2C(c2cc(Cl)c3[nH]ncc3c2)C1 (single isomer, unassigned; (-)) [Example 125, (−)-4-(7-chloro-1H-indazol-5-yl)-2-methyl-1,2,3,4-tetrahydoisoquinoline, maleate salt] | 11.5 nM | 21.3 nM | 
4 | COc1c(C2CN(C)Cc3ccccc32)ccc2sccc12 (single isomer, unassigned) [Example 82] | > 1000 nM | 4.3 nM | 
5 | CN1Cc2ccccc2C(c2ccc3sncc3c2)C1.O=C(O)/C=C\C(=O)O (single isomer, unassigned; (+)) [Example 135, (+)-4-benzo[d]isothiazol-5-yl-2-methyl-1,2,3,4-tetrahydroisoquinoline, maleate salt] | 79.4 nM | 10.4 nM | melting point: 145 to 147 °C
6 | CNCC[C@@H](Oc1ccccc1C)c1ccccc1 [atomoxetine] |  |  | activity at the dopamine transporter (dopamine transporter): little or no activity
7 | Cc1noc(C)c1C1CN(C)Cc2ccccc21 (racemic) [4-(3,5-dimethyl-isoxazol-4-yl, reference compound] | 128000 nM | 1400 nM | 
8 | CN1Cc2c(N)cccc2C(c2ccccc2)C1 (stereo not shown) [Nomifensine] |  |  | biological activity in the tetrabenazine in vivo assay [1]: potent biological activity
9 | CN1Cc2c(N)cccc2C(c2ccccc2)C1 (stereo not shown) [Nomifensine®] |  |  | serious side effect of long term administration [2]: fatal immune hemolytic anemia
10 | CN1Cc2ccccc2C(c2cccs2)C1 (racemic) [thiophen-2-yl, reference compound] | 5990 nM | 2450 nM | 
11 | COC(=O)C(c1ccccc1)C1CCCCN1 (stereo not shown) [Ritalin] |  |  | biological activity in the tetrabenazine in vivo assay [1]: potent activity
12 | CCN1Cc2ccccc2C(c2ccc3cn[nH]c3c2)C1 (single isomer, unassigned; (+)) [Example 130, (+)-4-(1H-Indazol-6-yl)-2-ethyl-1,2,3,4-tetrahydroisoquinoline, maleate salt] | 105 nM | 22.5 nM | 
13 | COc1cccc2cc(C3CN(C)Cc4ccccc43)oc12 (single isomer, unassigned) [Example 11] | > 300 nM | 26.8 nM | 
14 | Cc1cccc2c1C(c1ccc3ccccc3c1)CN(C)C2 (stereo not shown) [Example 56, 2,5-dimethyl-4-(naphthalen-2-yl)-1,2,3,4-tetrahydroisoquinoline] |  | 3.4 nM | 
15 | CN1Cc2cc(-c3cnccn3)ccc2C(c2cc3ccccc3s2)C1 (racemic) [Example 71, (±)-4-(benzo[b]thiophen-2-yl)-2-methyl-7-(pyrazin-2-yl)-1,2,3,4-tetrahydroisoquinoline] |  |  | inhibition at 0.1 µM (DAT): 33%; inhibition at 0.1 µM (SERT): 91%
16 | CN1Cc2cc(-c3cncnc3)ccc2C(c2cc3ccccc3s2)C1 (racemic) [Example 73, (±)-4-(benzo[b]thiophen-2-yl)-2-methyl-7-(pyrimidin-5-yl)-1,2,3,4-tetrahydroisoquinoline] |  |  | inhibition at 0.1 µM (DAT): 39%; inhibition at 0.1 µM (SERT): 93%
